Data on three molecules can be found in ChEMBL document CHEMBL1154674, “Synthesis and evaluation of three 18F-labeled aminophenylbenzothiazoles as amyloid imaging agents” (J Med Chem, 2009).

What all share (format): ADME, organism-based, Macaca mulatta
The nature of series [1]: Drug level in normal rhesus monkey thalamus assessed as standard uptake value at 96.3 MBq, iv after 12 mins by microPET. Conditions: in vivo, 0.2 h.
Series [2] is described as follows: Drug level in normal rhesus monkey white matter assessed as standard uptake value at 109.4 MBq, iv after 0.875 mins by microPET. Conditions: in vivo, 52 s.
Series [3] in a line: Drug level in normal rhesus monkey pons assessed as standard uptake value at 109.4 MBq, iv after 75 mins by microPET. Conditions: in vivo, 1.25 h.
A short description of series [4]: Drug level in normal rhesus monkey parietal cortex assessed as standard uptake value at 152.9 MBq, iv after 8 mins by microPET. Conditions: in vivo.
The nature of series [5]: Drug level in normal rhesus monkey parietal cortex assessed as standard uptake value at 152.9 MBq, iv after 6 mins by microPET. Conditions: in vivo, 0.1 h.
A short description of series [6]: Drug level in normal rhesus monkey white matter assessed as standard uptake value at 152.9 MBq, iv after 12 mins by microPET. Conditions: in vivo, 0.2 h.

Turning to `CN(C)c1ccc2nc(-c3ccc([18F])cc3)sc2c1`, the SUV in series [1] is 2.38.

Turning to `Nc1ccc2nc(-c3ccc([18F])cc3)sc2c1`, the SUV is listed as 1.16 in series [2] and 4.79 in series [3].

Consider `[11CH3]Nc1ccc(-c2nc3ccc(O)cc3s2)cc1` [PITTSBURGH COMPOUND B], for which the SUV in series [4] was 2.207; in series [5] it was 2.16; in series [6], 1.434.
